Reference: patent US8952128B2, “Somatostatin-dopamine chimeric analogs” (priority 2012, dated 2015)
Read-outs that look alike come from different tables or passages of the source. Numbered stars: 1 amine (or outer) side, 2 acyl side, 3 side chain; on linkers, the order of the positions; unused ones are H or OH. Bridge positions count the residues as written; N and C are the ends. Square brackets hold non-standard residues; d marks the D form. Peptide text beside a SMILES is read from it. X1 = CN1C[C@H](CSCCN(CCSC[C@@H]2C[C@@H]3c4cccc5[nH]cc(c45)C[C@H]3N(C)C2)[C@H](CCCCN[*:2])C(=O)[*:1])C[C@@H]2c3cccc4[nH]cc(c34)C[C@H]21

Tests used:
[1] = biological target: T1, hSSTR2 (Homo sapiens (Human), UniProt P30874); test: Intracellular calcium mobilization assay (FLIPR Calcium 4), hSSTR2; type: cell-based; conditions: for Emax: read-out: hSSTR2 % Emax ± SEM;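 as to all read-outs here: agonist activity read as intracellular calcium rise in cells expressing human SSTR2, loaded with a calcium-sensitive dye for 60 min at 37 °C, measured by FLIPR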
Description: (§5) The ability of select compounds according to the present invention to activate hSSTR2 and hDRD2 was determined by the intracellular calcium mobilization assay using FLIPR Calcium 4 assay kit (Molecular Devices).
(§6) Cells expressing hSSTR2 or hDRD2 were plated in 384-well microplates in tissue culture media and incubated for 16-24 hours at 37° C. in a humidified atmosphere with 5% CO2. Medium was replaced by loading buffer containing Hank's buffered saline, 20 mM HEPES, 2.5 mM probenecid and Calcium 4 dye, and the plates were incubated at 37° C. for 60 minutes.

[2] = biological target: hSSTR4 (Homo sapiens (Human), UniProt P31391); test: Somatostatin receptor radioligand binding assay, hSSTR4; conditions: CHO-K1 membranes, [125I-Tyr11]-SRIF-14; read-out: hSSTR4 Ki (nM) ± SEM
Description: (§1) The affinities of a test compound for the human somatostatin receptors were determined by radioligand binding assays in CHO-K1 cells stably transfected with each of the human somatostatin receptor subtypes, hSSTR1-5. […] Clonal cell lines stably expressing each of the somatostatin receptors were obtained by transfection into CHO-K1 cells (ATCC) and subsequently selected with culture media containing 0.8 mg/mL of G418 (Life Technologies).
(§2) Membranes for in vitro receptor binding assays were obtained by the following procedures. CHO-K1 cells expressing one of the somatostatin receptors were homogenized in ice-cold buffer with 10 mM Tris-HCl, 5 mM EDTA, 3 mM EGTA, 1 mM phenylmethylsuphonyl fluoride, pH 7.6, using Polytron PT10-35GT (Kinematica) at 18,000 rpm for 30 seconds and centrifuged at 500×g for 10 minutes. The supernatant containing the plasma membranes was centrifuged at 100,000×g for 30 minutes and the pellet was resuspended in buffer containing 20 mM glycine-glycine, 1 mM MgCl2, 250 mM sucrose, pH 7.2, for storage at −80° C.
(§3) For the hSSTR3 and 4 assays, membranes and various concentrations of test compounds were incubated in 96-well plates for 60 minutes at 25° C. with 0.05 nM [^125I-Tyr^11]-SRIF-14 (PerkinElmer Life Science) in 50 mM HEPES, 0.2% BSA, 5 mM MgCl2, 200 KIU/mL trasylol, 0.02 mg/mL bacitracin, and 0.02 mg/mL phenylmethylsuphonyl fluoride, pH 7.5.
(§4) The incubations were terminated by rapid filtration through GF/C glass microfiber filter plates (pre-wet with 0.3% polyethyleneimine and 0.1% BSA) using a 96-well cell harvester (Brandel). Plates were washed six times with 1 mL/well aliquots of ice-cold buffer containing 50 mM Tris buffer, pH 7.7. Specific binding was defined as the total radioligand bound minus the bound in the presence of 1000 nM SRIF-14.

[3] = biological target: hSSTR3 (Homo sapiens (Human), UniProt P32745); test: Somatostatin receptor radioligand binding assay, hSSTR3; conditions: CHO-K1 membranes, [125I-Tyr11]-SRIF-14; read-out: hSSTR3 Ki (nM) ± SEM
Description: as §1, §2, §3, §4

[4] = test system: pituitary tumor cells of acromegalic patients presenting with macroadenoma; test: Human pituitary adenoma cell growth hormone release assay; type: cell-based; conditions: 18 hours incubation, FIG. 5
Description: FIG. 1 is a graph showing the Growth hormone suppressing activity of Compound 4 (see Table I hereinbelow for its chemical name and its corresponding structural representation) on pituitary tumor cells of acromegalic patients presenting with macroadenoma. Various concentrations of Compound 4 were added to the medium and the cells were incubated for 18 hours before measurement of Growth hormone levels in the medium using the AlphaLISA Growth Hormone Immunoassay Research kit (PerkinElmer).
Various concentrations of Compounds 4 and 5 were added to the medium and the cells were incubated for 18 hours before measurement of Growth hormone levels in the medium using the AlphaLISA Growth Hormone Immunoassay Research kit (PerkinElmer).
Acromegalic patients presenting with macroadenoma underwent transsphenoidal surgery and a portion of each tumor obtained at surgery was dissociated by enzymatic and mechanical methods. The cells were cultured in DMEM medium supplemented with 10% FBS and antibiotics for 3 days. The cells were then plated in multi-well tissue culture dishes coated with extracellular matrix from bovine endothelial corneal cells at a density of 3-5×10^4 cells/well in DMEM supplemented with 10% FBS and antibiotics. After 2-3 days of culture, the medium was changed to DMEM supplemented with 1% FBS, antibiotics and 1% ITS (insulin, transferrin and selenium).

[5] = biological target: T2, hDRD2 (Homo sapiens (Human), UniProt P14416); test: cell-based
Description: as §5, §6

[6] = biological target: T1, hSSTR2; test: Somatostatin receptor radioligand binding assay, hSSTR2; conditions: CHO-K1 membranes, [125I-Tyr]-seglitide; read-out: hSSTR2 Ki (nM) ± SEM
Description: The affinities of a test compound for the human somatostatin receptors were determined by radioligand binding assays in CHO-K1 cells stably transfected with each of the human somatostatin receptor subtypes, hSSTR1-5. The cDNA coding sequences of hSSTR1 (GenBank accession No. NM—001049.1), hSSTR2 (GenBank accession No. XM—012697.1), hSSTR3 (GenBank accession No. XM—009963.1), hSSTR4 (GenBank accession No. NM—001052.1), and hSSTR5 (GenBank accession No. XM—012565.1) were subcloned into the mammalian expression vector pcDNA3.1 (Life Technologies). Clonal cell lines stably expressing each of the somatostatin receptors were obtained by transfection into CHO-K1 cells (ATCC) and subsequently selected with culture media containing 0.8 mg/mL of G418 (Life Technologies).
Membranes for in vitro receptor binding assays were obtained by the following procedures. […] The supernatant containing the plasma membranes was centrifuged at 100,000×g for 30 minutes and the pellet was resuspended in buffer containing 20 mM glycine-glycine, 1 mM MgCl2, 250 mM sucrose, pH 7.2, for storage at −80° C. […]

[7] = biological target: T2, hDRD2; type: binding; conditions: CHO-K1 membranes, [3H]-spiperone; read-out: hDRD2 Ki (nM) ± SEM

Chain of hSSTR3 (P32745 whole entry): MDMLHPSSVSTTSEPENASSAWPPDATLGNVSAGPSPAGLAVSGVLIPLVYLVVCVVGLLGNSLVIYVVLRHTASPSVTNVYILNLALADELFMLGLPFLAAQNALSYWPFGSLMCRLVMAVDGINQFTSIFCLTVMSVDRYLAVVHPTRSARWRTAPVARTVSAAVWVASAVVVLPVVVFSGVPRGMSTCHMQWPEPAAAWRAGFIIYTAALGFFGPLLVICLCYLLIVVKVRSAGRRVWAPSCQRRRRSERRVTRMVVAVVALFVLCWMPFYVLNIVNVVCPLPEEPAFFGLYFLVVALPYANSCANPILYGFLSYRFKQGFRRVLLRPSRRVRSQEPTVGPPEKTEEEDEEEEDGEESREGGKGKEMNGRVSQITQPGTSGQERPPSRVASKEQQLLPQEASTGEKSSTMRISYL
Chain of hSSTR4 (P31391 whole entry): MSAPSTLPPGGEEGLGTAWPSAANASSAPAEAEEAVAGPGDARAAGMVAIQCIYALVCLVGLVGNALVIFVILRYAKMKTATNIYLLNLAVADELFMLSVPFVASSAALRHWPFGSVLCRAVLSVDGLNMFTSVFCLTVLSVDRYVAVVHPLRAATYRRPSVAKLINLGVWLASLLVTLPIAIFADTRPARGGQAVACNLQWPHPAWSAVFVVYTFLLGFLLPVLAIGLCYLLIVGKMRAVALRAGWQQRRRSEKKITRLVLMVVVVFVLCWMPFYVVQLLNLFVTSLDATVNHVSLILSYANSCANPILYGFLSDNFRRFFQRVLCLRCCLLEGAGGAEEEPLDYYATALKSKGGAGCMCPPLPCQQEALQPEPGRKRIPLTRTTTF
T1 sequence (P30874 whole entry): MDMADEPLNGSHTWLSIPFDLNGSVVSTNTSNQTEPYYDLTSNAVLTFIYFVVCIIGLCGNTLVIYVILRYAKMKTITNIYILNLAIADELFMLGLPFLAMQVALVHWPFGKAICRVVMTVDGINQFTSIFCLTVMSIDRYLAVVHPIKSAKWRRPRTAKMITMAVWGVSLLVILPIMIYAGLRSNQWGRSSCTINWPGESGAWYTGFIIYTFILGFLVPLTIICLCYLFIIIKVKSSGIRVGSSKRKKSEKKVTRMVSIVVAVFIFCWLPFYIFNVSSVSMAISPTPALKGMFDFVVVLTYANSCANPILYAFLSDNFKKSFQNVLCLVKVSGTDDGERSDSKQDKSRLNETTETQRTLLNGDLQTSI

## C[C@@H](O)[C@@H]1NC(=O)[C@H](CCCCN)NC(=O)[C@@H](Cc2c[nH]c3ccccc23)NC(=O)[C@H](Cc2ccncc2)NC(=O)[C@H](Cc2ccccc2)NC(=O)[C@H](CCCNC(=N)N)NC(=O)[C@H](NCC[S@+]([O-])C[C@@H]2C[C@@H]3c4cccc5[nH]cc(c45)C[C@H]3N(C)C2)CCCCNC(=O)[C@H](Cc2ccc(O)cc2)NC1=O [Compound 11, Dop1[(R)SO]-psi(CH2NH)-cyclo(DLys-Arg-Phe-4Pal-DTrp-Lys-Thr-Tyr)]
[1]
  Emax: 92.3 ± 4.6%
[2]
  Ki: 2.1 ± 0.4 nM
[3]
  Ki: 30.9 ± 11.7 nM

## C[C@@H](O)[C@@H]1NC(=O)[C@H](CCCCN)NC(=O)[C@@H](Cc2c[nH]c3ccccc23)NC(=O)[C@H](Cc2ccncc2)NC(=O)[C@H](Cc2ccccc2)NC(=O)[C@H](CCCNC(=N)N)NC(=O)[C@H](NC[C@H](Cc2ccc(O)cc2)NC(=O)CSC[C@@H]2C[C@@H]3c4cccc5[nH]cc(c45)C[C@H]3N(C)C2)CCCCNC(=O)[C@H](Cc2ccccc2)NC1=O [Compound 4, Dop1-Tyr-psi(CH2NH)-cyclo(DLys-Arg-Phe-4Pal-DTrp-Lys-Thr-Phe)]
[1]
  EC50: 7.6 ± 1.5 nM
  Emax: 100 ± 2.9%
[1]; calcium mobilization
  improvement in EC50 and/or % Emax over Reference Compound B: statistically significant improvement
[4]
  Growth hormone suppressing activity compared to parent somatostatin analogs: enhanced Growth hormone suppressing activity
[5]
  EC50: 20.1 ± 2.6 nM

## C[C@@H](O)[C@@H]1NC(=O)[C@H](CCCCN)NC(=O)[C@@H](Cc2c[nH]c3ccccc23)NC(=O)[C@H](Cc2cccnc2)NC(=O)[C@H](Cc2ccccc2)NC(=O)[C@H](CCCNC(=N)N)NC(=O)[C@H](NC[C@H](Cc2ccc(O)cc2)NC(=O)CSC[C@@H]2C[C@@H]3c4cccc5[nH]cc(c45)C[C@H]3N(C)C2)CCCCNC(=O)[C@H](Cc2ccccc2)NC1=O [Compound 38, Dop1-Tyr-psi(CH2NH)-cyclo(DLys-Arg-Phe-3Pal-DTrp-Lys-Thr-Phe)]
[1]; calcium mobilization, read-out: hSSTR2 EC50 (nM) ± SEM
  EC50: 24.9 ± 7.7 nM
[1]; maximal effect in percentage of the maximal effect of SRIF-14
  Emax: 83.5 ± 4.4%
[5]
  EC50: 7.5 ± 0.1 nM
[6]
  Ki: 0.76 ± 0.23 nM

## C[C@@H](O)[C@@H]1NC(=O)[C@H](CCCCN)NC(=O)[C@@H](Cc2c[nH]c3ccccc23)NC(=O)[C@H](Cc2ccccc2)NC(=O)[C@H](Cc2ccccc2)NC(=O)[C@H](CCCNC(=N)N)NC(=O)[C@H](NCCS(=O)(=O)C[C@@H]2C[C@@H]3c4cccc5[nH]cc(c45)C[C@H]3N(C)C2)CCCCNC(=O)[C@H](Cc2ccc(F)cc2)NC1=O [Compound 10, Dop1(SO2)-psi(CH2NH)-cyclo(DLys-Arg-Phe-Phe-DTrp-Lys-Thr-4FPhe)]
[1]
  Emax: 84.8 ± 13%
[2]
  Ki: 20.6 nM
[3]
  Ki: 27.9 nM

## C[C@@H](O)[C@@H]1NC(=O)[C@H](CCCCN)NC(=O)[C@@H](Cc2c[nH]c3ccccc23)NC(=O)[C@H](Cc2ccccc2)NC(=O)[C@H](Cc2ccccc2)NC(=O)[C@H](CCCNC(=N)N)NC(=O)[C@H](N(CCSC[C@@H]2C[C@@H]3c4cccc5[nH]cc(c45)C[C@H]3N(C)C2)CCSC[C@@H]2C[C@@H]3c4cccc5[nH]cc(c45)C[C@H]3N(C)C2)CCCCNC(=O)[C@H](Cc2ccccc2)NC1=O [Compound 40, bis[Dop1-psi(CH2N)]-cyclo(DLys-Arg-Phe-Phe-DTrp-Lys-Thr-Phe)] (RFF[dW]KTF; linker N-C via X1)
[1]
  Emax: 95 ± 6.1%
[7]
  Ki: 445 ± 143 nM

## C[C@@H](O)[C@@H]1NC(=O)[C@H](CCCCN)NC(=O)[C@@H](Cc2c[nH]c3ccccc23)NC(=O)[C@H](Cc2ccncc2)NC(=O)[C@H](Cc2ccccc2)NC(=O)[C@H](CCCNC(=N)N)NC(=O)[C@H](NCC[S@@+]([O-])C[C@@H]2C[C@@H]3c4cccc5[nH]cc(c45)C[C@H]3N(C)C2)CCCCNC(=O)[C@H](Cc2ccc(O)cc2)NC1=O [Compound 12, Dop1[(S)SO]-psi(CH2NH)-cyclo(DLys-Arg-Phe-4Pal-DTrp-Lys-Thr-Tyr)]
[1]
  Emax: 90.9 ± 12.9%
[2]
  Ki: 3.2 ± 0.7 nM
[3]
  Ki: 143 ± 65.2 nM

## C[C@@H](O)[C@@H]1NC(=O)[C@H](CCCCN)NC(=O)[C@@H](Cc2c[nH]c3ccccc23)NC(=O)[C@H](Cc2ccccc2)NC(=O)[C@H](Cc2ccccc2)NC(=O)[C@H](CCCNC(=N)N)NC(=O)[C@H](NC[C@H](Cc2ccc(O)cc2)NC(=O)CSC[C@@H]2C[C@@H]3c4cccc5[nH]cc(c45)C[C@H]3N(C)C2)CCCCNC(=O)[C@H](Cc2ccc(F)cc2)NC1=O [Compound 5, Dop1-Tyr-psi(CH2NH)-cyclo(DLys-Arg-Phe-Phe-DTrp-Lys-Thr-4FPhe)]
[1]
  EC50: 14.6 ± 1.9 nM
  Emax: 97 ± 3.6%
[1]; calcium mobilization
  improvement in EC50 and/or % Emax over Reference Compound B: statistically significant improvement
[4]
  Growth hormone suppressing activity compared to parent somatostatin analogs: enhanced Growth hormone suppressing activity
[5]
  EC50: 30.1 ± 5.3 nM
